From patent US6069257A, “Process for the production of tetrazolylbenzopyrans” (SmithKline Beecham p.l.c., priority 1997, dated 2000)

Target: T1, leukotriene D4 receptors (guinea pig lung membranes) (Cavia porcellus, UniProt Q2NNR5)
T1 construct: prepared from tissues obtained from male Hartley guinea pigs; from tissue; host or cells: guinea pig lung membranes (male Hartley guinea pigs)
T1 sequence (Q2NNR5 1-340): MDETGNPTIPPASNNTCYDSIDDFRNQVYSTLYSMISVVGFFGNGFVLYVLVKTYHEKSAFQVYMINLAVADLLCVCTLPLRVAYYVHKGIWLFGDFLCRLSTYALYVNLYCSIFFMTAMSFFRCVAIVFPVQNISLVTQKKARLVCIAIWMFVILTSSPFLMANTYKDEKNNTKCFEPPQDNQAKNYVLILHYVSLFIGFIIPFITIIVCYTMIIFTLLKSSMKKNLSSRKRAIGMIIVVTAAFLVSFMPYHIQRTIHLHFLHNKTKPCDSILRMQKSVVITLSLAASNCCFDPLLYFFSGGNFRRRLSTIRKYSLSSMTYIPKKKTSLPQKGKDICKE
Assay: [3H]-LTD4 binding studies in guinea pig lung membranes
Procedure: Experimental Procedure for Binding Studies in Guinea-Pig Lungs with Pranlukast and Metabolites
Non-specific binding was determined in the presence of 0.5 uM cold LTD4. Membranes with bound ligand were captured on Whatman GF/C filters using vacuum filtration and a Brandel cell harvester, then washed with ice-cold 25 mM Tris-HCl. pH 7.4. The filters were placed in scintillation vials with 10 ml Ready Protein (Beckman, Fullerton, Calif., U.S.A.) and the radioactivity was determined by scintillation spectrometry.
All data are presented as Mean±S.E.M. Concentration-response curves (0.3-10,000 nM) for each compound were tested in at least 2 assays and run in duplicate. Cell-bound radioactivity was determined for each sample and non-specific binding was established in the presence of 1 uM unlabeled LTD4 and subtracted from control and drug-treated samples.

Structure (SMILES)	Ki [nM]
O=C(Nc1cccc2c(=O)cc(-c3nnnn3O)oc12)c1ccc(OCCCCc2ccccc2)cc1 [Example 1, 4-Oxo-8-[4-(4-phenylbutoxy)benzoylamino]-2-(1-hydroxytetrazol-5-yl)-4H-1-benzopyran]	0.22
O=C(Nc1cccc2c(=O)cc(-c3nnn(O)n3)oc12)c1ccc(OCCCCc2ccccc2)cc1 [Example 2, 4-Oxo-8-[4-(4-phenylbutoxy)benzoylamino]-2-(2-hydroxytetrazol-5-yl)-4H-1-benzopyran]	0.53
